From patent publication US4656158A, “Peptide, and production and use thereof” (Suntory Limited, priority 1984, dated 1987) come the findings set out here.

Series [1] is described as follows: repeated administration: immunogenicity and toxicity. The format is in vivo.
The nature of series [2]: solubility in solvents. The format is physicochemical.

In the case of `CC[C@H](C)[C@@H]1NC(=O)[C@H](CCCNC(=N)N)NC(=O)[C@H](CC(=O)O)NC(=O)[C@H](CCSC)NC(=O)[C@H](CCCNC(=N)N)NC(=O)CNC(=O)CNC(=O)[C@H](Cc2ccccc2)NC(=O)[C@@H](NC(=O)[C@H](CO)NC(=O)[C@H](CO)NC(=O)[C@H](CCCNC(=N)N)NC(=O)[C@H](CCCNC(=N)N)NC(=O)[C@H](CC(C)C)NC(=O)[C@@H](N)CO)CSSC[C@@H](C(=O)N[C@@H](CC(N)=O)C(=O)N[C@@H](CO)C(=O)N[C@@H](Cc2ccccc2)C(=O)N[C@@H](CCCNC(=N)N)C(=O)N[C@@H](Cc2ccc(O)cc2)C(=O)O)NC(=O)CNC(=O)[C@H](CC(C)C)NC(=O)CNC(=O)[C@H](CO)NC(=O)[C@H](CCC(N)=O)NC(=O)[C@H](C)NC(=O)CNC(=O)[C@H]([C@@H](C)CC)NC(=O)[C@H](CCCNC(=N)N)NC(=O)[C@H](CC(=O)O)NC(=O)[C@H](CCSC)NC(=O)[C@H](CCCNC(=N)N)NC(=O)CNC(=O)CNC(=O)[C@H](Cc2ccccc2)NC(=O)[C@@H](NC(=O)[C@H](CO)NC(=O)[C@H](CO)NC(=O)[C@H](CCCNC(=N)N)NC(=O)[C@H](CCCNC(=N)N)NC(=O)[C@H](CC(C)C)NC(=O)[C@@H](N)CO)CSSC[C@@H](C(=O)N[C@@H](CC(N)=O)C(=O)N[C@@H](CO)C(=O)N[C@@H](Cc2ccccc2)C(=O)N[C@@H](CCCNC(=N)N)C(=O)N[C@@H](Cc2ccc(O)cc2)C(=O)O)NC(=O)CNC(=O)[C@H](CC(C)C)NC(=O)CNC(=O)[C@H](CO)NC(=O)[C@H](CCC(N)=O)NC(=O)[C@H](C)NC(=O)CNC1=O` [β-hANP, β-human atrial natriuretic polypeptide], in series [1] (gradually hydrolized in a body to L-amino acids), the toxicity entry is on record as “little toxicity”. Further, in series [1] (repeated administration), the anaphylaxis shock result was “does not cause anaphylaxis shock” and the production of antibodies result is “does not stimulate production of antibodies”. In addition, the “solubility in organic solvents” value in series [2] (ethyl acetate, butyl acetate, ethyl ether, hexane, petroleum ether, benzene, chloroform) was “insoluble”. The “solubility in methanol and acetic acid” value in series [2] (methanol, acetic acid) is recorded as “partially”. Besides, the solubility in water entry in series [2] (water) is recorded as “soluble”.
